# Reference: US20230365592A1 (Agios Pharmaceuticals, Inc., priority 2022, published 2023)
# Target: T1, human PAH with the R408W mutation (Homo sapiens, UniProt P00439, R408W)
# T1 construct: expressed in transfected cells
# T1 sequence (P00439 1-452 R408W): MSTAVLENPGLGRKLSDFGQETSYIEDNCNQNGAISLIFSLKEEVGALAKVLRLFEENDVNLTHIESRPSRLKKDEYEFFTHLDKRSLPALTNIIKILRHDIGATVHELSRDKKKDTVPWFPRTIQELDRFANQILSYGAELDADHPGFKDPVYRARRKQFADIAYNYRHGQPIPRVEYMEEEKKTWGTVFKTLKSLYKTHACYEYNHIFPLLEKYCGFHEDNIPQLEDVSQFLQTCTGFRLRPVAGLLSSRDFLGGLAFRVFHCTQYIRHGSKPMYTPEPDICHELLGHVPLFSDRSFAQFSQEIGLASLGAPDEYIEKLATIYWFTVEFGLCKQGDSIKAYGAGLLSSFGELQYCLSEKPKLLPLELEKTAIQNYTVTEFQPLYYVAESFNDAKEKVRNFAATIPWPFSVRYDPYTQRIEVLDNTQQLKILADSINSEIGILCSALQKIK
# Assay: Cell Based Phenylalanine Flux Assay;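 also: after compound treatment, cells received sepiapterin plus isotope-labelled Phenylalanine for 4 hours, then labelled Tyrosine in the medium was quantified, 10-point 2-fold dilution series run in duplicate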
# Conditions: A375 cells expressing human R408W PAH; 24 hrs compound incubation; 13C-Tyrosine by LC-MS; average where tested multiple times; read-out: AC50
row,Compound,AC50 [nM]
1,"Cc1cccn2nc([C@H]3c4nc[nH]c4CCN3C(=O)c3nnc(C(C)C)o3)cc12 [Example 1451, (R)-(5-isopropyl-1,3,4-oxadiazol-2-yl)(4-(4-methylpyrazolo[1,5-a]pyridin-2-yl)-6,7-dihydro-1H-imidazo[4,5-c]pyridin-5(4H)-yl)methanone]",> 5000
2,"CC(C)c1nnc(C(=O)N2CCc3[nH]cnc3[C@H]2c2cc3c(F)cccn3n2)o1 [Example 1452, (S)-(4-(4-fluoropyrazolo[1,5-a]pyridin-2-yl)-6,7-dihydro-1H-imidazo[4,5-c]pyridin-5(4H)-yl)(5-isopropyl-1,3,4-oxadiazol-2-yl)methanone]",< 500
3,"Clc1cccn2nc([C@H]3c4nc[nH]c4CCN3c3nnc(C4CC4)o3)cc12 [Example 1454, (R)-2-(4-(4-chloropyrazolo[1,5-a]pyridin-2-yl)-1,4,6,7-tetrahydro-5H-imidazo[4,5-c]pyridin-5-yl)-5-cyclopropyl-1,3,4-oxadiazole]",> 5000
4,"Clc1cccn2nc([C@@H]3c4nc[nH]c4CCN3c3nnc(C4CC4)o3)cc12 [Example 1455, (S)-2-(4-(4-chloropyrazolo[1,5-a]pyridin-2-yl)-1,4,6,7-tetrahydro-5H-imidazo[4,5-c]pyridin-5-yl)-5-cyclopropyl-1,3,4-oxadiazole]",< 500
5,"Cc1cccc(-c2nnc(C(=O)N3CCc4[nH]cnc4[C@@H]3c3cc4c(C(F)F)cccn4n3)o2)n1 [Example 1464, (R)-(4-(4-(difluoromethyl)pyrazolo[1,5-a]pyridin-2-yl)-6,7-dihydro-1H-imidazo[4,5-c]pyridin-5(4H)-yl)(5-(6-methylpyridin-2-yl)-1,3,4-oxadiazol-2-yl)methanone]",1000 to 5000
6,"Cc1cccc(-c2nnc(C(=O)N3CCc4[nH]cnc4[C@H]3c3cc4c(C(F)F)cccn4n3)o2)n1 [Example 1465, (S)-(4-(4-(difluoromethyl)pyrazolo[1,5-a]pyridin-2-yl)-6,7-dihydro-1H-imidazo[4,5-c]pyridin-5(4H)-yl)(5-(6-methylpyridin-2-yl)-1,3,4-oxadiazol-2-yl)methanone]",< 500
7,"Cc1nn(C)cc1-c1nnc(C(=O)N2CCc3[nH]cnc3[C@@H]2c2cc3c(C(F)F)cccn3n2)o1 [Example 1467, (R)-(4-(4-(difluoromethyl)pyrazolo[1,5-a]pyridin-2-yl)-6,7-dihydro-1H-imidazo[4,5-c]pyridin-5(4H)-yl)(5-(1,3-dimethyl-1H-pyrazol-4-yl)-1,3,4-oxadiazol-2-yl)methanone]",1000 to 5000
8,"O=C(c1nnc(-c2cccnc2)o1)N1CCc2[nH]cnc2[C@H]1c1cc2cccc(C(F)F)n2n1 [Example 1468, (S)-(4-(7-(difluoromethyl)pyrazolo[1,5-a]pyridin-2-yl)-6,7-dihydro-1H-imidazo[4,5-c]pyridin-5(4H)-yl)(5-(pyridin-3-yl)-1,3,4-oxadiazol-2-yl)methanone]",< 500
9,"O=C(c1nnc(-c2cccnc2)o1)N1CCc2[nH]cnc2[C@@H]1c1cc2cccc(C(F)F)n2n1 [Example 1469, (R)-(4-(7-(difluoromethyl)pyrazolo[1,5-a]pyridin-2-yl)-6,7-dihydro-1H-imidazo[4,5-c]pyridin-5(4H)-yl)(5-(pyridin-3-yl)-1,3,4-oxadiazol-2-yl)methanone]",> 5000
10,"Cc1cccn2nc([C@@H]3c4nc[nH]c4CCN3C(=O)c3nnc(-c4cnn(C(F)(F)F)c4)o3)cc12 [Example 1472, (S)-(4-(4-methylpyrazolo[1,5-a]pyridin-2-yl)-6,7-dihydro-1H-imidazo[4,5-c]pyridin-5(4H)-yl)(5-(1-(trifluoromethyl)-1H-pyrazol-4-yl)-1,3,4-oxadiazol-2-yl)methanone]",500 to 1000
11,"Cc1cccn2nc([C@H]3c4nc[nH]c4CCN3C(=O)c3nnc(-c4cnn(C(F)(F)F)c4)o3)cc12 [Example 1473, (R)-(4-(4-methylpyrazolo[1,5-a]pyridin-2-yl)-6,7-dihydro-1H-imidazo[4,5-c]pyridin-5(4H)-yl)(5-(1-(trifluoromethyl)-1H-pyrazol-4-yl)-1,3,4-oxadiazol-2-yl)methanone]",1000 to 5000
12,"O=C(c1nnc(-c2ccn(C(F)(F)F)n2)o1)N1CCc2[nH]cnc2[C@@H]1c1cc2c(Cl)cccn2n1 [Example 1477, (R)-(4-(4-chloropyrazolo[1,5-a]pyridin-2-yl)-6,7-dihydro-1H-imidazo[4,5-c]pyridin-5(4H)-yl)(5-(1-(trifluoromethyl)-1H-pyrazol-3-yl)-1,3,4-oxadiazol-2-yl)methanone]",1000 to 5000
13,"Cc1cccn2nc([C@@H]3c4nc[nH]c4CCN3C(=O)c3nnc(-c4ccn(C(F)(F)F)n4)o3)cc12 [Example 1478, (S)-(4-(4-methylpyrazolo[1,5-a]pyridin-2-yl)-6,7-dihydro-1H-imidazo[4,5-c]pyridin-5(4H)-yl)(5-(1-(trifluoromethyl)-1H-pyrazol-3-yl)-1,3,4-oxadiazol-2-yl)methanone]",< 500
14,"O=C(c1nnc(-c2ccn(C(F)(F)F)n2)o1)N1CCc2[nH]cnc2[C@H]1c1cc2c(C(F)F)cccn2n1 [Example 1480, (S)-(4-(4-(difluoromethyl)pyrazolo[1,5-a]pyridin-2-yl)-6,7-dihydro-1H-imidazo[4,5-c]pyridin-5(4H)-yl)(5-(1-(trifluoromethyl)-1H-pyrazol-3-yl)-1,3,4-oxadiazol-2-yl)methanone]",< 500
15,"O=C(c1nnc(-c2ccn(C(F)(F)F)n2)o1)N1CCc2[nH]cnc2[C@@H]1c1cc2c(C(F)F)cccn2n1 [Example 1481, (R)-(4-(4-(difluoromethyl)pyrazolo[1,5-a]pyridin-2-yl)-6,7-dihydro-1H-imidazo[4,5-c]pyridin-5(4H)-yl)(5-(1-(trifluoromethyl)-1H-pyrazol-3-yl)-1,3,4-oxadiazol-2-yl)methanone]",1000 to 5000
16,"CC(C)c1nnc(C(=O)N2CCc3[nH]cnc3[C@@H]2c2cc3c(Cl)cccn3n2)o1 [Example 1485, (R)-(4-(4-chloropyrazolo[1,5-a]pyridin-2-yl)-6,7-dihydro-1H-imidazo[4,5-c]pyridin-5(4H)-yl)(5-isopropyl-1,3,4-oxadiazol-2-yl)methanone]",1000 to 5000

# Continued, values first:
row,AC50 [nM],Compound
1,< 500,"Cn1ccc(-c2nnc(C(=O)N3CCc4[nH]cnc4[C@H]3c3cc4cccc(F)n4n3)o2)n1 [Example 1456, (S)-(4-(7-fluoropyrazolo[1,5-a]pyridin-2-yl)-6,7-dihydro-1H-imidazo[4,5-c]pyridin-5(4H)-yl)(5-(1-methyl-1H-pyrazol-3-yl)-1,3,4-oxadiazol-2-yl)methanone]"
2,1000 to 5000,"Cn1ccc(-c2nnc(C(=O)N3CCc4[nH]cnc4[C@@H]3c3cc4cccc(F)n4n3)o2)n1 [Example 1457, (R)-(4-(7-fluoropyrazolo[1,5-a]pyridin-2-yl)-6,7-dihydro-1H-imidazo[4,5-c]pyridin-5(4H)-yl)(5-(1-methyl-1H-pyrazol-3-yl)-1,3,4-oxadiazol-2-yl)methanone]"
3,1000 to 5000,"O=C(c1nnc(-c2ncccc2F)o1)N1CCc2[nH]cnc2[C@@H]1c1cc2cccc(F)n2n1 [Example 1458, (R)-(4-(7-fluoropyrazolo[1,5-a]pyridin-2-yl)-6,7-dihydro-1H-imidazo[4,5-c]pyridin-5(4H)-yl)(5-(3-fluoropyridin-2-yl)-1,3,4-oxadiazol-2-yl)methanone]"
4,< 500,"O=C(c1nnc(-c2ncccc2F)o1)N1CCc2[nH]cnc2[C@H]1c1cc2cccc(F)n2n1 [Example 1459, (S)-(4-(7-fluoropyrazolo[1,5-a]pyridin-2-yl)-6,7-dihydro-1H-imidazo[4,5-c]pyridin-5(4H)-yl)(5-(3-fluoropyridin-2-yl)-1,3,4-oxadiazol-2-yl)methanone]"
5,500 to 1000,"O=C(c1nnc(-c2cnccn2)o1)N1CCc2[nH]cnc2[C@H]1c1cc2cccc(F)n2n1 [Example 1461, (S)-(4-(7-fluoropyrazolo[1,5-a]pyridin-2-yl)-6,7-dihydro-1H-imidazo[4,5-c]pyridin-5(4H)-yl)(5-(pyrazin-2-yl)-1,3,4-oxadiazol-2-yl)methanone]"
6,< 500,"Cc1c(-c2nnc(C(=O)N3CCc4[nH]cnc4[C@H]3c3cc4cccc(F)n4n3)o2)cnn1C [Example 1462, (S)-(5-(1,5-dimethyl-1H-pyrazol-4-yl)-1,3,4-oxadiazol-2-yl)(4-(7-fluoropyrazolo[1,5-a]pyridin-2-yl)-6,7-dihydro-1H-imidazo[4,5-c]pyridin-5(4H)-yl)methanone]"
7,1000 to 5000,"Cc1c(-c2nnc(C(=O)N3CCc4[nH]cnc4[C@@H]3c3cc4cccc(F)n4n3)o2)cnn1C [Example 1463, (R)-(5-(1,5-dimethyl-1H-pyrazol-4-yl)-1,3,4-oxadiazol-2-yl)(4-(7-fluoropyrazolo[1,5-a]pyridin-2-yl)-6,7-dihydro-1H-imidazo[4,5-c]pyridin-5(4H)-yl)methanone]"
8,< 500,"Cc1cccc(-c2nnc(C(=O)N3CCc4[nH]cnc4[C@H]3c3cc4c(F)cccn4n3)o2)n1 [Example 1470, (S)-(4-(4-fluoropyrazolo[1,5-a]pyridin-2-yl)-6,7-dihydro-1H-imidazo[4,5-c]pyridin-5(4H)-yl)(5-(6-methylpyridin-2-yl)-1,3,4-oxadiazol-2-yl)methanone]"
9,1000 to 5000,"O=C(c1nnc(-c2ccn(C(F)(F)F)n2)o1)N1CCc2[nH]cnc2[C@@H]1c1cc2cccc(F)n2n1 [Example 1475, (R)-(4-(7-fluoropyrazolo[1,5-a]pyridin-2-yl)-6,7-dihydro-1H-imidazo[4,5-c]pyridin-5(4H)-yl)(5-(1-(trifluoromethyl)-1H-pyrazol-3-yl)-1,3,4-oxadiazol-2-yl)methanone]"
